# From paper PMC4631615 (Bipolar disorders, 2015)
# Where “and” joins values, the source holds several entries; their conditions need not be identical. Identical values can stand only once. Marks after values point to notes of the source that are not given here.
# What was measured:
# [1] = tested on: patients with bipolar disorder; conditions: Phase IIb; cited from earlier work
# pregnant SWV mice [2] = assay: Pregnancy outcomes; assay type: in vivo, mouse; conditions: for Dead fetuses/litter / Fetus weight / Implantations/litter / Live fetuses/litter / Resorptions/litter: mean ± SD
# NMRI mice = conditions: injected on GD 8 with 3 mmol/kg; cited from earlier work
# acyl-CoA synthetase 4 = conditions: cited from earlier work
# mouse = conditions: source not given; cited from earlier work
# pregnant SWV mice [3] = assay: Maternal body weight and weight gain, teratogenicity study; assay type: in vivo, mouse; conditions: mean ± SD
# various animal models = conditions: cited from earlier work
# SWV mouse fetuses [4] = conditions: mouse, in vivo
# [5] = tested on: histone deacetylase (HDAC); conditions: cited from earlier work
# SWV mouse fetuses [6] = assay: Skeletal examination of fetuses; assay type: in vivo
# [7] = 1/3.28 of LD50 (VCD 304.6 mg/kg) p.o. GD 4–17
# [8] = 1/4.36 of LD50 (RIS 14.5, VCD 229.2 mg/kg) p.o. GD 4–17
# [9] = 1/6.54 of LD50 (RIS 9.6, OLA 32.1, VCD 152.8 mg/kg) p.o. GD 4–17
compound,measurement,setting,value
"CCC(C)C(CC)C(N)=O (stereo not drawn) [VCD, 2-ethyl-3-methylpentamide]",Tolerated daily dose with minimal side effects,[1],1500 mg
same,Fetuses sex ratio F/M,pregnant SWV mice [2]; [7],57/73
same,Dead fetuses/litter,pregnant SWV mice [2]; [7],0.1 ± 0.2
same,Fetus weight,pregnant SWV mice [2]; [7],0.91 ± 0.06 g
same,Implantations/litter,pregnant SWV mice [2]; [7],14.5 ± 1.7
same,Live fetuses/litter,pregnant SWV mice [2]; [7],13.2 ± 2.8
same,Resorptions/litter,pregnant SWV mice [2]; [7],1.2 ± 1.4
same,Fetuses sex ratio F/M,pregnant SWV mice [2]; [8],58/77
same,Dead fetuses/litter,pregnant SWV mice [2]; [8],0.1 ± 0.3
same,Fetus weight,pregnant SWV mice [2]; [8],0.90 ± 0.07 g
same,Implantations/litter,pregnant SWV mice [2]; [8],14.8 ± 1.6
same,Live fetuses/litter,pregnant SWV mice [2]; [8],13.7 ± 2.0
same,Resorptions/litter,pregnant SWV mice [2]; [8],0.9 ± 0.8
same,Fetuses sex ratio F/M,pregnant SWV mice [2]; [9],71/73
same,Dead fetuses/litter,pregnant SWV mice [2]; [9],0.2 ± 0.4
same,Fetus weight,pregnant SWV mice [2]; [9],0.91 ± 0.07 g
same,Implantations/litter,pregnant SWV mice [2]; [9],14.9 ± 1.7
same,Live fetuses/litter,pregnant SWV mice [2]; [9],13.8 ± 2.1
same,Resorptions/litter,pregnant SWV mice [2]; [9],1.0 ± 0.9
same,Embryotoxicity,NMRI mice,did not induce any embryotoxicity
same,"Ki, uncompetitive inhibition of acylation of arachidonic acid",acyl-CoA synthetase 4,6.38 mM
same,"LD50 mouse, oral",mouse,999 mg/kg
same,Dams net weight gain,pregnant SWV mice [3]; [7],8.6 ± 1.8 grams
same,Dams weight GD 18,pregnant SWV mice [3]; [7],48.2 ± 2.9 grams
same,Dams weight gain,pregnant SWV mice [3]; [7],20.5 ± 3.5 grams
same,Dams net weight gain,pregnant SWV mice [3]; [8],7.8 ± 2.1 grams
same,Dams weight GD 18,pregnant SWV mice [3]; [8],47.3 ± 4.2 grams
same,Dams weight gain,pregnant SWV mice [3]; [8],20.1 ± 2.9 grams
same,Dams net weight gain,pregnant SWV mice [3]; [9],7.9 ± 2.1 grams
same,Dams weight GD 18,pregnant SWV mice [3]; [9],48.5 ± 3.4 grams
same,Dams weight gain,pregnant SWV mice [3]; [9],20.2 ± 3.0 grams
same,Anticonvulsant potency relative to VPA,various animal models,3–10 times
same,"Cleft palate, affected fetuses","SWV mouse fetuses [4]; female, SWV",0
same,"Dilated renal pelvis, affected litters","SWV mouse fetuses [4]; female, SWV",2/2
same,"Exencephaly, affected fetuses","SWV mouse fetuses [4]; female, SWV",0
same,"Malposition stomach, affected litters","SWV mouse fetuses [4]; female, SWV",1/1
same,"Right aortic arch, affected litters","SWV mouse fetuses [4]; female, SWV",1/1 ^b
same,Overall teratogenicity under the experimental conditions,SWV mouse fetuses [4]; po,did not show any teratogenic effect
same,Inhibition of HDACs,[5],does not inhibit
same,"All vertebra: incomplete ossification, affected fetuses",SWV mouse fetuses [6]; [7],0
same,"Cervical vertebra: ossified fusion of centrums, affected fetuses",SWV mouse fetuses [6]; [7],1/1
same,"Cervical vertebra: ossified fusion of centrums, affected litters",SWV mouse fetuses [6]; [7],1/1
same,"Fetuses with skeletal abnormalities, %",SWV mouse fetuses [6]; [7],8.6%
same,"Fibula: bent, affected fetuses",SWV mouse fetuses [6]; [7],0
same,"Metacarpal: absent ossification, affected fetuses",SWV mouse fetuses [6]; [7],1/1
same,"Metacarpal: absent ossification, affected litters",SWV mouse fetuses [6]; [7],1/1
same,"Metacarpal: incomplete ossification, affected fetuses",SWV mouse fetuses [6]; [7],0
same,"Metatarsal: absent ossification, affected fetuses",SWV mouse fetuses [6]; [7],1/1
same,"Metatarsal: absent ossification, affected litters",SWV mouse fetuses [6]; [7],1/1
same,"Metatarsal: incomplete ossification, affected fetuses",SWV mouse fetuses [6]; [7],0
same,"Ribs: absent 13th, affected fetuses",SWV mouse fetuses [6]; [7],0
same,"Ribs: branched, affected fetuses",SWV mouse fetuses [6]; [7],0
same,"Skull: incomplete ossification, affected fetuses",SWV mouse fetuses [6]; [7],0
same,"Skull: interparietal incomplete ossification, affected fetuses",SWV mouse fetuses [6]; [7],1/1
same,"Skull: interparietal incomplete ossification, affected litters",SWV mouse fetuses [6]; [7],1/1
same,"Skull: parietal incomplete ossification, affected fetuses",SWV mouse fetuses [6]; [7],0
same,"Skull: supraoccipital incomplete ossification, affected fetuses",SWV mouse fetuses [6]; [7],0
same,"Sternebra: absent ossification, affected fetuses",SWV mouse fetuses [6]; [7],1/1
same,"Sternebra: absent ossification, affected litters",SWV mouse fetuses [6]; [7],1/1
same,"Sternebra: incomplete ossification, affected fetuses",SWV mouse fetuses [6]; [7],1/1
same,"Sternebra: incomplete ossification, affected litters",SWV mouse fetuses [6]; [7],1/1
same,"Sternebra: misaligned, affected fetuses",SWV mouse fetuses [6]; [7],0
same,"Sternebra: misshapen, affected fetuses",SWV mouse fetuses [6]; [7],3
same,"Sternebra: misshapen, affected litters",SWV mouse fetuses [6]; [7],2
same,"Whole skeletal system: incomplete ossification, affected fetuses",SWV mouse fetuses [6]; [7],0
same,"All vertebra: incomplete ossification, affected fetuses",SWV mouse fetuses [6]; [8],0
same,"Cervical vertebra: ossified fusion of centrums, affected fetuses",SWV mouse fetuses [6]; [8],0
same,"Fibula: bent, affected fetuses",SWV mouse fetuses [6]; [8],1/1
same,"Fibula: bent, affected litters",SWV mouse fetuses [6]; [8],1/1
same,"Metacarpal: absent ossification, affected fetuses",SWV mouse fetuses [6]; [8],0
same,"Metacarpal: incomplete ossification, affected fetuses",SWV mouse fetuses [6]; [8],0
same,"Metatarsal: absent ossification, affected fetuses",SWV mouse fetuses [6]; [8],0
same,"Metatarsal: incomplete ossification, affected fetuses",SWV mouse fetuses [6]; [8],0
same,"Ribs: absent 13th, affected fetuses",SWV mouse fetuses [6]; [8],3/3
same,"Ribs: absent 13th, affected litters",SWV mouse fetuses [6]; [8],3/3
same,"Ribs: branched, affected fetuses",SWV mouse fetuses [6]; [8],1/1
same,"Ribs: branched, affected litters",SWV mouse fetuses [6]; [8],1/1
same,"Skull: incomplete ossification, affected fetuses",SWV mouse fetuses [6]; [8],1/1
same,"Skull: incomplete ossification, affected litters",SWV mouse fetuses [6]; [8],1/1
same,"Skull: interparietal incomplete ossification, affected fetuses",SWV mouse fetuses [6]; [8],0
same,"Skull: parietal incomplete ossification, affected fetuses",SWV mouse fetuses [6]; [8],0
same,"Skull: supraoccipital incomplete ossification, affected fetuses",SWV mouse fetuses [6]; [8],0
same,"Sternebra: absent ossification, affected fetuses",SWV mouse fetuses [6]; [8],0
same,"Sternebra: incomplete ossification, affected fetuses",SWV mouse fetuses [6]; [8],3
same,"Sternebra: incomplete ossification, affected litters",SWV mouse fetuses [6]; [8],2
same,"Sternebra: misaligned, affected fetuses",SWV mouse fetuses [6]; [8],0
same,"Sternebra: misshapen, affected fetuses",SWV mouse fetuses [6]; [8],6
same,"Sternebra: misshapen, affected litters",SWV mouse fetuses [6]; [8],4
same,"All vertebra: incomplete ossification, affected fetuses",SWV mouse fetuses [6]; [9],0
same,"Cervical vertebra: ossified fusion of centrums, affected fetuses",SWV mouse fetuses [6]; [9],0
same,"Fibula: bent, affected fetuses",SWV mouse fetuses [6]; [9],0
same,"Metacarpal: absent ossification, affected fetuses",SWV mouse fetuses [6]; [9],0
same,"Metacarpal: incomplete ossification, affected fetuses",SWV mouse fetuses [6]; [9],0
same,"Metatarsal: absent ossification, affected fetuses",SWV mouse fetuses [6]; [9],0
same,"Metatarsal: incomplete ossification, affected fetuses",SWV mouse fetuses [6]; [9],0
same,"Ribs: absent 13th, affected fetuses",SWV mouse fetuses [6]; [9],3
same,"Ribs: absent 13th, affected litters",SWV mouse fetuses [6]; [9],1
same,"Ribs: branched, affected fetuses",SWV mouse fetuses [6]; [9],1/1
same,"Ribs: branched, affected litters",SWV mouse fetuses [6]; [9],1/1
same,"Skull: incomplete ossification, affected fetuses",SWV mouse fetuses [6]; [9],6
same,"Skull: incomplete ossification, affected litters",SWV mouse fetuses [6]; [9],2
same,"Skull: interparietal incomplete ossification, affected fetuses",SWV mouse fetuses [6]; [9],1/1
same,"Skull: interparietal incomplete ossification, affected litters",SWV mouse fetuses [6]; [9],1/1
same,"Skull: parietal incomplete ossification, affected fetuses",SWV mouse fetuses [6]; [9],0
same,"Skull: supraoccipital incomplete ossification, affected fetuses",SWV mouse fetuses [6]; [9],1/1
same,"Skull: supraoccipital incomplete ossification, affected litters",SWV mouse fetuses [6]; [9],1/1
same,"Sternebra: absent ossification, affected fetuses",SWV mouse fetuses [6]; [9],2/2
same,"Sternebra: absent ossification, affected litters",SWV mouse fetuses [6]; [9],2/2
same,"Sternebra: incomplete ossification, affected fetuses",SWV mouse fetuses [6]; [9],0
same,"Sternebra: misaligned, affected fetuses",SWV mouse fetuses [6]; [9],1/1
same,"Sternebra: misaligned, affected litters",SWV mouse fetuses [6]; [9],1/1
same,"Sternebra: misshapen, affected fetuses",SWV mouse fetuses [6]; [9],0
same,"Fetuses with skeletal abnormalities, %","SWV mouse fetuses [6]; mouse, in vivo",10.4% and 11.1%
same,"Whole skeletal system: incomplete ossification, affected fetuses","SWV mouse fetuses [6]; mouse, in vivo",0
